We go through 60 compounds from patent US20080090805A1, “CB-1 MODULATING COMPOUNDS AND THEIR USE” (ACADIA PHARMACEUTICALS INC., priority 2005, published 2008).

For this test, the target named is CB1 (mutant) (Homo sapiens, UniProt P21554). The test can be described thus: R-SAT functional receptor assay, CB1 (mutant, truncated after amino acid 417). To be noted: R-SAT CB1; for pIC50 / IC50: receptor form (mutant or wild-type) not stated; for Emax / % Inhibition: receptor form not stated, relative to SR141716 (100%); for Emax: read-out: % Inhibition. In kind it is cell-based.

Setting [1] is: Appendix A, read-out: pIC50 (converted).

As a reminder, the pIC50 is −log10 of the IC50, conventionally taken in molar units. As a reminder, the % Inhibition is the drop in the measured response relative to a control, in per cent.

Read-outs that look alike come from different tables or passages of the source.

Sequence of CB1 (mutant) (P21554 1-417, change not shown): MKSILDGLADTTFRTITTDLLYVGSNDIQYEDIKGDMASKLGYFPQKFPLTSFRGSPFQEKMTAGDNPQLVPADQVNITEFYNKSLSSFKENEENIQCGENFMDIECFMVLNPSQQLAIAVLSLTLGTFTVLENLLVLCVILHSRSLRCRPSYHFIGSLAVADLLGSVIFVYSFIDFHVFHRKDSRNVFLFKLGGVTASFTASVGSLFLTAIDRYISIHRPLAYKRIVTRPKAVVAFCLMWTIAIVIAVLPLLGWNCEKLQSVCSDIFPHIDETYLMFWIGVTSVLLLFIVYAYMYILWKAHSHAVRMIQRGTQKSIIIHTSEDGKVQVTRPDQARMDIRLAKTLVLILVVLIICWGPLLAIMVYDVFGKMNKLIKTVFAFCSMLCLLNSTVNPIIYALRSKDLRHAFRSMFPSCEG

`CON(C)C(=O)c1ccc2c(c1)N=C(c1ccccn1)c1ccccc1S2`: for the setting “Appendix A”, the negative logarithm of the IC50 (pIC50) turned out to be 1.0 and the Emax turned out to be 8%. As to `Cc1ccc(N2CCN(C(=O)c3ccc4c(c3)N=C(C3CCCCC3)c3ccccc3S4)CC2)c(C)c1` [drawing 896], the IC50 under setting [1] was 200 nM. Under “Appendix A”, the Emax was determined as 103%. As to `CCCCNC(=O)c1ccc2c(c1)N=C(c1sccc1C)c1ccccc1S2` [drawing 881], the Emax (Appendix A) came out at 91%. Besides, the IC50 (pIC50, Appendix A) is 15.8 nM. In the case of `Cc1ccsc1C1=Nc2cc(C(=O)NCCCC(F)(F)F)ccc2Sc2ccccc21` [drawing 599], the IC50 under setting [1] is 3.98 nM. Also, for the setting “Appendix A”, the Emax was 111%. As for `COc1ccc(C2=Nc3cc(C(=O)NCc4cccnc4)ccc3Sc3ccccc32)cc1` [drawing 712], under setting [1], the IC50 is 79.4 nM. The Emax (Appendix A) came to 106%.

Consider `CCCCNS(=O)(=O)c1ccc2c(c1)N=C(c1ccc(Cl)cc1)c1ccccc1S2` [drawing 875], for which, under setting [1], the IC50 is 15.8 nM. Moreover, the Emax (Appendix A) was determined as 106%. `CCCC1=Nc2cc(C(=O)NCCN(CC(C)C)CC(C)C)ccc2Sc2ccccc21`: under setting [1], the IC50 is 63.1 nM. In addition, under “Appendix A”, the Emax is 105%. For `CCN(CCNC(=O)c1ccc2c(c1)N=C(c1ccc(F)cc1)c1ccccc1S2)c1ccccc1` [drawing 773], in that order: 10 nM and 99%.

For the compound `O=C(NCc1cccnc1)c1ccc2c(c1)N=C(c1ccc(Br)cc1)c1ccccc1S2` [drawing 1007], the IC50 under setting [1] was 25.1 nM. Moreover, the Emax (Appendix A) was determined as 106%. For the compound `CCOC(=O)N1CCC(NC(=O)c2ccc3c(c2)N=C(c2ccc(Cl)cc2)c2ccccc2S3)CC1` [drawing 1101], the IC50 under setting [1] is 31.6 nM. Further, the Emax (Appendix A) amounted to 109%. For `CCCCNC(=O)c1ccc2c(c1)N=C(c1ccc(Cl)cn1)c1ccccc1S2` [drawing 813], in that order: 10 nM and 106%. Take `O=C(NN1CCCC1)c1ccc2c(c1)N=C(c1cccc(Cl)c1)c1ccccc1S2`: under “Appendix A”, the Emax is 85%. On to `O=C(NCc1cccnc1)c1ccc2c(c1)N=C(c1ccc(Cl)c(Cl)c1)c1ccccc1S2` [drawing 687], for which, for the setting “Appendix A”, the pIC50 worked out at 8.2 and the “% Inhibition” value is recorded as 114%. For `O=C(c1ccc2c(c1)N=C(c1ccc(F)cc1)c1ccccc1S2)N1CCCCC1` [drawing 1163], the Emax (Appendix A) was determined as 90%. Moreover, the IC50 (pIC50, Appendix A) was 39.8 nM. With `O=C(NCCCc1ccccc1)c1ccc2c(c1)N=C(c1ccccc1F)c1ccccc1S2` [drawing 935], under setting [1], the IC50 is 20 nM. In addition, the Emax (Appendix A) turned out to be 106%. On to `CCCCN(CCCNC(=O)c1ccc2c(c1)N=C(CCC)c1ccccc1S2)Cc1ccccc1`, for which the IC50 under setting [1] was 100 nM. Also, the Emax (Appendix A) is 99%. `CCCC1=Nc2cc(C(=O)NCCc3ccc(OC)cc3OC)ccc2Sc2ccccc21` [drawing 570]: the IC50 under setting [1] was 50.1 nM. The Emax (Appendix A) worked out at 101%. Regarding `CCCCNC(=O)c1ccc2c(c1)N=C(c1ccc(OC)cc1)c1ccccc1S2` [drawing 887], the IC50 under setting [1] was 15.8 nM. Moreover, where the note is “Appendix A”, the Emax was determined as 112%. Take `CON(C)C(=O)c1ccc2c(c1)N=C(c1ncccc1C)c1ccccc1S2`: for the setting “Appendix A”, the pIC50 is 1.0 and the Emax was found to be 0%. For the compound `CC(C)CNC(=O)c1ccc2c(c1)N=C(c1ccc(Cl)c(Cl)c1)c1ccccc1S2` [drawing 643], the IC50 under setting [1] was 5.01 nM. The Emax (Appendix A) amounted to 108%. On the same counts, the results for `O=C(NCCCC(F)(F)F)c1ccc2c(c1)N=C(c1ccc(Cl)cc1)c1ccccc1S2` [drawing 601] are 3.98 nM and 105%. For `CONC(=O)c1ccc2c(c1)N=C(c1cccc(Cl)c1)c1ccccc1S2`, in that order: 398 nM and 89%.

The compound `CC(C)CNC(=O)c1ccc2c(c1)N=C(c1ccc(Cl)s1)c1ccccc1S2` [drawing 551] returned a negative logarithm of the IC50 (pIC50) (Appendix A) of 8.7. For the compound `CCONC(=O)c1ccc2c(c1)N=C(c1cccc(F)c1)c1ccccc1S2`, under setting [1], the IC50 was 200 nM. The Emax (Appendix A) was 81%. For `Cc1ccsc1C1=Nc2cc(C(=O)NCc3cccnc3)ccc2Sc2ccccc21`, in that order: 100 nM and 102%. As for `O=C(NCCCc1ccccc1)c1ccc2c(c1)N=C(c1cccc(Cl)c1)c1ccccc1S2` [drawing 615], under setting [1], the IC50 is 3.98 nM. Moreover, the Emax (Appendix A) came to 110%. Consider `CCCC1=Nc2cc(C(=O)NCCCN(CC)CC)ccc2Sc2ccccc21`, for which, under setting [1], the IC50 was 2510 nM. Also, the Emax (Appendix A) was found to be 125%.

As to `O=C(NC1CCCCC1)c1ccc2c(c1)N=C(c1cccc(F)c1)c1ccccc1S2` [drawing 941], the IC50 under setting [1] is 20 nM. Besides, the Emax (Appendix A) turned out to be 127%.

As to `O=C(NCc1ccncc1)c1ccc2c(c1)N=C(N1CCCCC1)c1ccccc1S2`, the IC50 under setting [1] is 501 nM. Also, for the setting “Appendix A”, the Emax is 81%.

With `O=C(NCc1ccc(Cl)cc1Cl)c1ccc2c(c1)N=C(N1CCCCC1)c1ccccc1S2` [drawing 1123], the IC50 under setting [1] was 39.8 nM. Also, the Emax (Appendix A) stood at 101%. For `CCCC1=Nc2cc(C(=O)NCC3CCCN3CC)ccc2Sc2ccccc21` (centres unmarked), in that order: 1580 nM and 133%.

`O=C(NCc1ccc(F)cc1)c1ccc2c(c1)N=C(C1CCCCC1)c1ccccc1S2` [drawing 591]: under setting [1], the IC50 was 3.16 nM. In addition, the Emax (Appendix A) came out at 102%.

For `O=C(NCc1ccccc1Cl)c1ccc2c(c1)N=C(c1ccc(Cl)cc1)c1ccccc1S2` [drawing 1089], the Emax (Appendix A) was determined as 95%. For the same compound, for the setting “pIC50, Appendix A”, the IC50 is 31.6 nM.

For the compound `COc1ccc(C2=Nc3cc(C(=O)NCc4ccc(S(N)(=O)=O)cc4)ccc3Sc3ccccc32)cc1`, the IC50 under setting [1] is 158 nM. Also, the Emax (Appendix A) is 84%. With `CCCCCC1=Nc2cc(C(=O)NC3CCN(C(=O)OCC)CC3)ccc2Sc2ccccc21`, under setting [1], the IC50 was 501 nM. Also, where the note is “Appendix A”, the Emax was found to be 87%.

`CCCC1=Nc2cc(C(=O)N3CCc4ccccc4C3)ccc2Sc2ccccc21`: under setting [1], the IC50 is 631 nM. For the same compound, the Emax (Appendix A) was 95%.

Regarding `CCOCCNC(=O)c1ccc2c(c1)N=C(NCc1ccc(Cl)cc1)c1ccccc1S2`, for the setting “Appendix A”, the Emax turned out to be 1%. `O=C(NCc1ccccn1)c1ccc2c(c1)N=C(c1ccccn1)c1ccccc1S2`: the IC50 under setting [1] is 316 nM. Moreover, the Emax (Appendix A) was 81%. For `CCCCN(C)C(=O)c1ccc2c(c1)N=C(c1ccccc1F)c1ccccc1S2`, in that order: 251 nM and 77%.

With `CC(C)NC(=O)c1ccc2c(c1)N=C(c1ccccc1Cl)c1ccccc1S2`, under setting [1], the IC50 is 631 nM. The Emax (Appendix A) was determined as 46%.

In the case of `O=C(c1ccc2c(c1)N=C(c1cccc(Cl)c1)c1ccccc1S2)N1CCCCC1`, the IC50 under setting [1] was 39.8 nM. In addition, where the note is “Appendix A”, the Emax amounted to 80%.

With `C[C@@H]1CCC[C@H](C)N1NC(=O)c1ccc2c(c1)N=C(c1ccc(Cl)cc1F)c1ccccc1S2` [drawing 811], under setting [1], the IC50 is 10 nM. Further, the Emax (Appendix A) came to 103%. For `O=C(NCCc1cccnc1)c1ccc2c(c1)N=C(c1ccccc1F)c1ccccc1S2`, in that order: 79.4 nM and 110%. Consider `CCCCNC(=O)c1ccc2c(c1)N=C(c1ccc(Cl)cc1)c1cc(F)ccc1S2` [drawing 1111], for which, under setting [1], the IC50 is 39.8 nM. Under “Appendix A”, the Emax came to 98%. On the same counts, the results for `O=C(NCCc1cccc(Cl)c1)c1ccc2c(c1)N=C(c1ccc(Cl)cc1)c1ccccc1S2` [drawing 911] are 15.8 nM and 99%. As to `O=C(NCc1cccs1)c1ccc2c(c1)N=C(c1ccc(Cl)cc1)c1ccccc1S2` [drawing 751], the IC50 under setting [1] was 7.94 nM. Further, the Emax (Appendix A) is 107%. For the compound `CC(CNC(=O)c1ccc2c(c1)N=C(c1ccc(Cl)cc1)c1ccccc1S2)c1ccccc1` (centres unmarked) [drawing 933], the IC50 under setting [1] was 20 nM. Moreover, the Emax (Appendix A) came out at 106%.

Take `O=C(NCCCC(F)(F)F)c1ccc2c(c1)N=C(c1ccccn1)c1ccccc1S2` [drawing 871]: the IC50 under setting [1] is 15.8 nM. Besides, where the note is “Appendix A”, the Emax is 117%. For `COCCNC(=O)c1ccc2c(c1)N=C(c1ccc(Cl)s1)c1ccccc1S2` [drawing 819], in that order: 12.6 nM and 103%. Consider `CCCCNC(=O)c1ccc2c(c1)N=C(c1ccc(F)cc1)c1ccccc1S2` [drawing 785], for which, under “Appendix A”, the Emax was found to be 96%. The same compound showed an IC50 (pIC50, Appendix A) of 10 nM.

Consider `O=C(NN1CCCCC1)c1ccc2c(c1)N=C(c1ccc(Cl)cc1)c1ccccc1S2` [drawing 863], for which the “% Inhibition” value (Appendix A) turned out to be 103%. In the case of `O=C(NCCc1cccnc1)c1ccc2c(c1)N=C(c1ccc(F)cc1)c1ccccc1S2` [drawing 1033], the IC50 under setting [1] is 25.1 nM. Further, for the setting “Appendix A”, the Emax was 119%. On the same counts, the results for `Cc1cccnc1C1=Nc2cc(C(=O)NC3CCCCC3)ccc2Sc2ccccc21` are 501 nM and 61%. Consider `O=C(NCCc1cccc(Cl)c1)c1ccc2c(c1)N=C(c1ccccc1)c1ccccc1S2` [drawing 1069], for which the IC50 under setting [1] is 31.6 nM. The Emax (Appendix A) was determined as 102%.

Regarding `CCCCNC(=O)c1ccc2c(c1)N=C(c1ccc(Cl)cc1)c1ccc(F)cc1S2` [drawing 985], the IC50 under setting [1] was 25.1 nM. The Emax (Appendix A) was determined as 109%. On the same counts, the results for `CCCC1=Nc2cc(C(=O)NCC3C=CC4=C(C3)OCO4)ccc2Sc2ccccc21` (centres unmarked) are 398 nM and 91%. In the case of `O=C(NN1CCCCCC1)c1ccc2c(c1)N=C(c1ccc(Cl)cc1)c1ccccc1S2` [drawing 1041], under setting [1], the IC50 was 31.6 nM. Besides, the “% Inhibition” value (Appendix A) is recorded as 96%. For `O=C(NCCCc1ccccc1)c1ccc2c(c1)N=C(c1ccc(Cl)cc1)c1ccccc1S2` [drawing 645], the Emax (Appendix A) was found to be 106%. Moreover, the IC50 (pIC50, Appendix A) was 5.01 nM. With `CC(CNC(=O)c1ccc2c(c1)N=C(c1ccccc1)c1ccccc1S2)c1ccccc1` (centres unmarked) [drawing 729], the IC50 under setting [1] was 7.94 nM. Moreover, the Emax (Appendix A) was determined as 101%. `O=C(NCc1cccnc1)c1ccc2c(c1)N=C(c1ccc(F)cc1)c1ccccc1S2` [drawing 931]: under setting [1], the IC50 was 15.8 nM. The Emax (Appendix A) came out at 123%.
